# Laboratory results taken from patent publication US4221730A, “3-[[(4-Aminophenyl)sulfonyl]amino]-N-[diaminophosphinyl]-benzamide” (Morton-Norwich Products, Inc., priority 1979, dated 1980).
# pIC50: −log10 of the molar value.
# How the values were obtained:
# Type in all cases: cell-based
# Escherichia coli = test: in vitro antibacterial activity; details: commonly employed in vitro techniques
# Text: (§1) It is particularly inimical to Proteus mirabilis and Escherichia coli at levels of 1.4 to 5.5×10^-5 molar in commonly employed in vitro techniques for determining antibacterial activity.
# Proteus mirabilis = test: in vitro antibacterial activity; details: commonly employed in vitro techniques
# Text: as §1
# [1] = target: T1, urease of intact Proteus mirabilis cells (Proteus mirabilis, UniProt P17086); test: anti-urease potency using intact Proteus mirabilis cells as the source of urease; details: 40 minutes preincubation, pH 8.0, ammonia formed in five minutes after addition of urea; read-out: concentration evincing a 50% inhibition of the urease of intact Proteus mirabilis cells
# T1 construct: using intact Proteus mirabilis cells as the source of urease; endogenous in cells
# Procedure: The anti-urease potency of the compound of this invention was determined using intact Proteus mirabilis cells as the source of urease. Compounds were preincubated with Proteus mirabilis cells suspended in a saline solution (0.1 molar) buffered with 0.1 molar tris(hydroxymethyl)aminomethane (pH 8.0). After 40 minutes preincubation, the remaining urease activity was determined by collecting the ammonia formed in five minutes after the addition of the substrate, urea. Ammonia assays were carried out according to the procedure of Seligson and Seligson [J. Lab. Clin. Med. 38, 324-330 (1951)]. Percent inhibition was calculated by comparing the amount of ammonia generated by cells preincubated with 3-[[(4-aminophenyl)sulfonyl]amino]-N-[diaminophosphinyl]-benzamide with the controls, in which preincubation was carried out in the absence of compound.
# T1 sequence (P17086 whole entry): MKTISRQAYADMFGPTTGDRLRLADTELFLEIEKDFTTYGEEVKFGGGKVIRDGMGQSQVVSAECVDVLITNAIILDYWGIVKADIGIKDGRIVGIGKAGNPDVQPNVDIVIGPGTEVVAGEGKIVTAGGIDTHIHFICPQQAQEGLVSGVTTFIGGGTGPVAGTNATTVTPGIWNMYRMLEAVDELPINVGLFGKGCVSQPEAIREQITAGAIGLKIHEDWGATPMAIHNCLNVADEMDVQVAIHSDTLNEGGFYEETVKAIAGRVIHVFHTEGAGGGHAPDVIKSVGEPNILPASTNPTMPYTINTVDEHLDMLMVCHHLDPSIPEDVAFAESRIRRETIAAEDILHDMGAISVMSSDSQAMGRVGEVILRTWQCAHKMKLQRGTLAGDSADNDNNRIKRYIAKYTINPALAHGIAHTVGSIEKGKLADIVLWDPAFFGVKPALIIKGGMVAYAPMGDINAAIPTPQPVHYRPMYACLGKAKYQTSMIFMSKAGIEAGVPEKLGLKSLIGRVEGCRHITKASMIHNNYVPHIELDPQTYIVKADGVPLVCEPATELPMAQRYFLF
compound,measurement,setting,value
Nc1ccc(S(=O)(=O)Nc2cccc(C(=O)NP(N)(N)=O)c2)cc1 [3-[[(4-aminophenyl)sulfonyl]amino]-N-[diaminophosphinyl]-benzamide],antibacterial activity level (inimical concentration),Escherichia coli,1.4 to 5.5×10^-5 molar
same,antibacterial activity level (inimical concentration),Proteus mirabilis,1.4 to 5.5×10^-5 molar
same,pIC50,[1],5.70
